Experimental findings from PubChem BioAssay AID651630 (Sanford-Burnham Center for Chemical Genomics, 2012) are described below.

The structures appear in SMILES notation. Activity calls are given as the source filed them.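 Rule for the calls: active = lipid-stain IC50 at or below a set limit, with nuclear-stain toxicity IC50 at least five times higher; inactive = the rest.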

One experiment has as its system DAPI. The experiment is described as follows: triacylglycerol accumulation inhibitor potency, dose response, cell-based, panel, Nile Red and DAPI fluorescence, H9c2 (AID 651630).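 Note: cells exposed to compound overnight before fixation and staining.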 Conditions: H9c2 cells, DAPI nuclear fluorescence (cytotoxicity counter-readout), oleic acid.
The test system of the next experiment is TAG. Described as above. The note with it: H9c2 cells, Nile Red TAG fluorescence, oleic acid.

`COCCN1Cc2cccc(C(=O)Nc3cccc(-c4nc5ccccc5[nH]4)c3)c2C1=O`: the IC50 cytotoxicity (DAPI nuclear signal decrease) in the experiment on DAPI (run 1) and in the experiment with DAPI (run 2) was over 25 µM throughout. Further, the results for the IC50 in the experiment with TAG (mean of runs), in the experiment on TAG (run 1) and with TAG (run 2) were 1.96 µM, 1.26 µM and 2.66 µM, respectively.
For the molecule `C=CC[C@@H](CC(=O)N(CCO)Cc1ccccc1)C(=O)N[C@H](COC(=O)[C@@H](CC=C)Cc1ccc(F)cc1)C(C)(C)C`, the IC50 cytotoxicity (DAPI nuclear signal decrease) with DAPI (run 1) and in the experiment on DAPI (run 2) was over 25 µM throughout. Moreover, the IC50 (usually the concentration that inhibits the measured activity by half) was 4.28 µM in the experiment on TAG (mean of runs), 3.51 µM with TAG (run 1) and 5.05 µM in the experiment on TAG (run 2).
With `CCC(C)(C)C1CCC2(CC1)NC(=O)N(CC(=O)NCCc1ccc(OC)c(OC)c1)C2=O` (stereo unspecified), the IC50 cytotoxicity (DAPI nuclear signal decrease) with DAPI (run 1) and in the experiment on DAPI (run 2) was over 25 µM in each case. The half-maximal inhibitory concentration (IC50) with TAG (mean of runs) was 3.29 µM; with TAG (run 1), 1.91 µM; in the experiment on TAG (run 2), 4.67 µM.
On to `C[C@H](CO)N1C[C@H](C)[C@@H](CN(C)Cc2ccc(-c3ccccc3)cc2)Oc2c(NC(=O)Cc3ccccc3)cccc2C1=O`, for which the IC50 cytotoxicity (DAPI nuclear signal decrease) with DAPI (mean of runs) is > 25 µM (inactive); with DAPI (run 1), over 25 µM; in the experiment with DAPI (run 2), over 25 µM. The half-inhibitory concentration (IC50) in the experiment on TAG (mean of runs) is 11.3 µM; in the experiment on TAG (run 1), 12.4 µM; in the experiment with TAG (run 2), 10.2 µM.
In the case of `O[C@H]1CN(CC2CCCCC2)[C@@H](c2ccc(Cl)cc2)C[C@@H]1n1cc(-c2ccc(F)cc2)nn1`, the figures for the IC50 cytotoxicity (DAPI nuclear signal decrease) with DAPI (mean of runs), in the experiment with DAPI (run 1) and with DAPI (run 2) were > 25 µM (inactive), over 25 µM and over 25 µM, respectively. The results for the IC50 in the experiment on TAG (run 1) and with TAG (run 2) were 18.5 µM and over 25 µM, respectively.
Consider `CC1(C(=O)Nc2ccc3c(c2)OCO3)Cc2c(-c3cccc(C(N)=O)c3)ccnc2O1` (stereo unspecified), for which the IC50 cytotoxicity (DAPI nuclear signal decrease) in the experiment with DAPI (mean of runs) is > 25 µM (inactive); with DAPI (run 1) it was over 25 µM; in the experiment on DAPI (run 2), over 25 µM. For the same molecule, the figures for the half-inhibitory concentration (IC50) in the experiment on TAG (run 1) and in the experiment on TAG (run 2) were over 25 µM and 19.1 µM, respectively.
As for `C/C(=N\Nc1ccc(Cl)nn1)c1ccccc1O`, the IC50 cytotoxicity (DAPI nuclear signal decrease) in the experiment on DAPI (mean of runs) is > 25 µM (inactive); in the experiment on DAPI (run 1) it was over 25 µM; in the experiment with DAPI (run 2), over 25 µM. In addition, the IC50 was > 25 µM (inactive) in the experiment on TAG (mean of runs), over 25 µM in the experiment on TAG (run 1) and over 25 µM in the experiment on TAG (run 2).
In the case of `CC1(c2ccccc2)O[C@@H]2C[C@H]3[C@@H]4CCC5=CC(=O)C=C[C@]5(C)[C@@]4(F)[C@@H](O)C[C@]3(C)[C@]2(C(=O)CO)O1` (stereo partly specified), the IC50 cytotoxicity (DAPI nuclear signal decrease) in the experiment with DAPI (mean of runs) is > 25 µM (inactive); in the experiment with DAPI (run 1), over 25 µM; in the experiment with DAPI (run 2), over 25 µM. The IC50 in the experiment on TAG (mean of runs) was 13.9 µM; in the experiment with TAG (run 1), 13 µM; with TAG (run 2), 14.7 µM.
With `C=CCn1c(N)c(C(=O)Nc2ccccc2)c2nc3ccccc3nc21`, the IC50 cytotoxicity (DAPI nuclear signal decrease) is > 25 µM (inactive) in the experiment on DAPI (mean of runs), over 25 µM with DAPI (run 1) and over 25 µM in the experiment on DAPI (run 2). Moreover, the 50% inhibitory concentration (IC50) was 6.11 µM with TAG (mean of runs), 6.18 µM in the experiment on TAG (run 1) and 6.04 µM in the experiment on TAG (run 2).
For `COc1cc(C#Cc2c(-c3cncn3C)n(C)c3ccc(-c4cc(OC)c(OC)c(OC)c4)cc23)cc(OC)c1`, the IC50 cytotoxicity (DAPI nuclear signal decrease) in the experiment on DAPI (mean of runs) was > 25 µM (inactive); in the experiment with DAPI (run 1), over 25 µM; with DAPI (run 2), over 25 µM. Moreover, the IC50 with TAG (mean of runs) was > 25 µM (inactive); in the experiment on TAG (run 1), over 25 µM; with TAG (run 2), over 25 µM.
`Oc1ccc(C[C@H]2CNC(=S)N2CC2CCCN2C[C@H](Cc2ccc(O)cc2)N2C[C@H](Cc3ccc(O)cc3)N(CC3CCCCCC3)C2=S)cc1` (stereo partly specified): the IC50 cytotoxicity (DAPI nuclear signal decrease) is > 25 µM (inactive) in the experiment on DAPI (mean of runs), over 25 µM with DAPI (run 1) and over 25 µM in the experiment with DAPI (run 2). Besides, the figures for the 50% inhibitory concentration (IC50) in the experiment on TAG (mean of runs), with TAG (run 1) and in the experiment on TAG (run 2) were 8.6 µM, 7.31 µM and 9.89 µM, respectively.
Take `O=C(C[C@H]1C[C@H](C(=O)N2CCCCC2)[C@@]2(CCc3ccccc3)c3[nH]c4ccc(Cl)cc4c3CCN2C1=O)NCc1cccc(C(F)(F)F)c1`: the IC50 cytotoxicity (DAPI nuclear signal decrease) with DAPI (run 1) and in the experiment with DAPI (run 2) was over 25 µM throughout. The 50% inhibitory concentration (IC50) was 3.78 µM with TAG (mean of runs), 2.76 µM in the experiment with TAG (run 1) and 4.8 µM in the experiment with TAG (run 2).
Consider `Nc1ccccc1C#Cc1ccccc1`, for which the IC50 cytotoxicity (DAPI nuclear signal decrease) in the experiment with DAPI (mean of runs) is > 25 µM (inactive); in the experiment on DAPI (run 1), over 25 µM; in the experiment on DAPI (run 2), over 25 µM. Moreover, the values for the IC50 in the experiment on TAG (mean of runs), in the experiment on TAG (run 1) and in the experiment on TAG (run 2) were 10.9 µM, 8.79 µM and 13.1 µM, respectively.
Consider `O=C1NC(Cc2ccc(O)cc2)c2nc3ccc(F)cc3c(=O)n2-c2cc3ccccc3cc21` (stereo unspecified), for which the IC50 cytotoxicity (DAPI nuclear signal decrease) in the experiment on DAPI (run 1) and with DAPI (run 2) was over 25 µM in each case. The 50% inhibitory concentration (IC50) is 2.45 µM in the experiment on TAG (mean of runs), 2.11 µM with TAG (run 1) and 2.79 µM in the experiment on TAG (run 2).
With `CN(C)CCCN1c2ccccc2Sc2ccccc21`, the IC50 cytotoxicity (DAPI nuclear signal decrease) was > 25 µM (inactive) in the experiment with DAPI (mean of runs), over 25 µM with DAPI (run 1) and over 25 µM with DAPI (run 2). In addition, the IC50 in the experiment with TAG (mean of runs) is > 25 µM (inactive); with TAG (run 1) it was over 25 µM; in the experiment on TAG (run 2), over 25 µM.
As to `Cc1cc(C)c2nc(NC(=O)c3ccc([N+](=O)[O-])o3)sc2c1`, the results for the IC50 cytotoxicity (DAPI nuclear signal decrease) in the experiment on DAPI (mean of runs), in the experiment on DAPI (run 1) and in the experiment on DAPI (run 2) were > 25 µM (inactive), over 25 µM and over 25 µM, respectively. Further, the IC50 in the experiment on TAG (mean of runs) was > 25 µM (inactive); in the experiment on TAG (run 1) it was over 25 µM; in the experiment on TAG (run 2), over 25 µM.
On to `Cc1ccc2nc(NC(=O)CN(C)S(=O)(=O)c3cccc4nsnc34)sc2c1`, for which the IC50 cytotoxicity (DAPI nuclear signal decrease) with DAPI (mean of runs) is > 25 µM (inactive); with DAPI (run 1), over 25 µM; in the experiment on DAPI (run 2), over 25 µM. Besides, the IC50 in the experiment with TAG (mean of runs) was 10.5 µM; in the experiment on TAG (run 1), 11.1 µM; in the experiment with TAG (run 2) it was 9.95 µM.
As to `O=C1C=CC(O)C2(CO)OC12` (stereo unspecified), the IC50 cytotoxicity (DAPI nuclear signal decrease) in the experiment on DAPI (mean of runs) was > 25 µM (inactive); in the experiment with DAPI (run 1) it was over 25 µM; with DAPI (run 2), over 25 µM. Besides, the concentration for half-maximal inhibition (IC50) in the experiment on TAG (run 1) is 14.4 µM; with TAG (run 2) it was over 25 µM.
On to `O=C(CSc1nc2ccc(Nc3nc(N4CCOCC4)nc(N4CCOCC4)n3)cc2s1)Nc1ccccc1F`, for which the IC50 cytotoxicity (DAPI nuclear signal decrease) was > 25 µM (inactive) in the experiment on DAPI (mean of runs), over 25 µM in the experiment with DAPI (run 1) and over 25 µM in the experiment on DAPI (run 2). The results for the IC50 in the experiment with TAG (mean of runs), in the experiment with TAG (run 1) and in the experiment with TAG (run 2) were 12.9 µM, 12.6 µM and 13.2 µM, respectively.
Turning to `CCCCNC(=O)C(=O)Nc1ccc2c(c1)N(S(=O)(=O)c1cccs1)CCC2`, the results for the IC50 cytotoxicity (DAPI nuclear signal decrease) with DAPI (mean of runs), in the experiment on DAPI (run 1) and with DAPI (run 2) were > 25 µM (inactive), over 25 µM and over 25 µM, respectively. In addition, the half-inhibitory concentration (IC50) was over 25 µM in the experiment on TAG (run 1) and 9.53 µM in the experiment with TAG (run 2).
